Patent publication EP3502109A1, “TRIAZOLE-PHENYL-THIAZOLE HETEROCYCLES AS INNOVATIVE INHIBITORS OF TRYPANOTHIONE REDUCTASE AND THEIR USE AS LEISHMANICIDES” (Consejo Superior De Investigaciones Científicas, priority 2017, dated 2019)
Where a name gives a salt, the structure may show the parent alone. Each block holds one compound with its values, some of them ahead of it.

Key:
[1] = system: L. infantum axenic amastigotes; assay: Leishmanicidal activity on axenic amastigotes (PI exclusion, flow cytometry); type: cell-based; conditions: Leishmania infantum, 24 h
Experimental: L. infantum axenic amastigotes were grown in M199 (Invitrogen, Leiden, The Netherlands) medium supplemented with 10% heat inactivated FCS, 1 g/L β-alanine, 100 mg/L L-asparagine, 200 mg/L sacarose, 50 mg/L sodium pyruvate, 320 mg/L malic acid, 40 mg/L fumaric acid, 70 mg/L succinic acid, 200 mg/L α-ketoglutaric acid, 300 mg/L citric acid, 1.1 g/L sodium bicarbonate, 5 g/L MES, 0.4 mg/L hemin, 10 mg/L gentamicine pH 5.4 at 37 °C. THP-1 cells were grown in RPMI-1640 medium (Gibco, Leiden, The Netherlands) supplemented with 10% heat inactivated FCS, antibiotics, 1 mM HEPES, 2 mM glutamine and 1 mM sodium pyruvate, pH 7.2 at 37 °C and 5% CO2.
(§1) Drug treatment of amastigotes was performed during the logarithmic growth phase at a concentration of 1×10^6 parasites/mL at 37 °C for 24 h. Drug treatment of promastigotes was performed during the logarithmic growth phase at a concentration of 2×10^6 parasites/mL at 26 °C for 24 h. The percentage of living cells was evaluated by flow cytometry by the propidium iodide (PI) exclusion method.^17 Drug concentrations ranged from 0.2 µM to 25 µM.

[2] = target: recombinant Li-TryR (Leishmania infantum, UniProt A4HSF7); assay: Li-TryR oxidoreductase activity assay; type: biochemical
Experimental: Oxidoreductase activity was determined according to the method described by Hamilton et al. (Biochem. J., 2003, 369, 529-537). Briefly, reactions were carried out at 26 °C (250 µL) of HEPES pH 8.0 (40 mM) buffer containing EDTA (1 mM), NADPH (150 µM), NADP+ (30 µM), DTNB (25 µM), T[S]2 (1 µM), glicerol (0.02%), DMSO (1.5%) and recombinant Li-TryR (7 nM). […] Enzyme activity was monitored by the increase in absorbance at 412 nm for 1 h at 26 °C in a VERSAmax microplate reader (Molecular Devices, California, USA). All the assays were conducted in triplicate in at least three independent experiments. Data were analyzed using a non-linear regression model with the Grafit6 software (Erithacus, Horley, Surrey, UK).

[3] = system: L. infantum intracellular amastigotes; assay: Leishmania infection assay (intracellular amastigotes in THP-1 macrophages); type: cell-based; conditions: THP-1, 48 h
Experimental: Human THP-1 monocytic cells were seeded at 1.2 x 10^5 cells/ml in 24-multidish plates (Nunc, Roskilde, Denmark) and differentiated to macrophages for 24 h in 1 ml of RPMI 1640 medium containing 10 ng/ml of phorbol 12-myristate 13-acetate (PMA) (Sigma-Aldrich, St. Louis, MO). Medium culture was removed, and 1.2 x 10^6 Leishmania amastigotes in 1 ml of THP-1 medium were added to each well. Four hours later, the medium with non-infective amastigotes was completely removed, washed 3 times with 1 phosphate-buffered saline (PBS), and replaced with new THP-1 medium and the corresponding treatment. After 48 h of treatment, medium was removed; THP-1 cells were washed 3 times with 1xPBS and detached with TrypLE Express (Invitrogen, Leiden, The Netherlands) according to the manufacturer's indications. Infection quantification was measured by flow cytometry. Drug concentrations ranged from 0.2 µM to 25 µM.

[4] = system: L. infantum promastigotes; assay: Leishmanicidal activity on promastigotes (PI exclusion, flow cytometry); type: cell-based; conditions: Leishmania infantum, 24 h
Experimental: L. infantum promastigotes (MCAN/ES/ 89/IPZ229/1/89) were grown in RPMI-1640 medium (Sigma-Aldrich, St. Louis, MO, USA) supplemented with 10% heat-inactivated fetal calf serum (FCS), antibiotics, and 25 mm HEPES (pH 7.2) at 26 °C.
as §1

[5] = target: T1, Li-TryR dimeric form (Leishmania infantum, UniProt A4HSF7); assay: Dimer quantitation assay (ELISA), Li-TryR monomer displacement; type: binding
Experimental: The stability of the Li-TryR dimeric form in the presence of the compounds was evaluated using an Enzyme-Linked ImmunoSorbent Assay (ELISA). Briefly a dual (HIS/FLAG) tagged Li-TryR (400 nM) was incubated in a dimerization buffer (200 µL 300 mM NaCl, 50 mM Tris pH 8.0) for 16 h at 37 °C with agitation and in a humid atmosphere in the presence of different peptide concentration (10 to 90 µM) in 1.5ml tubes. Next, the tubes were centrifuged at 30000 rcf and supernatants were disposed in anti-flag coated 96 well plates and incubated 30 min, at 37°C with gentle shaking. Then the plates were washed ten times with TTBS (Tween 0.1%, 2 mM Tris, 138 mM NaCl 138 pH 7.6) and incubated with diluted monoclonal α-HIS HRP conjugated antibody (200 µL, Abcam, Cambridge, UK) in BSA (5%) in TTBS for 1 h at room temperature. The plates were washed once again as previously described and 1,2-phenylenediamine dihydrochloride (OPD) substrate (100 µL, Dako, Glostrup, Denmark) prepared according to manufacturer's instructions was added. The enzymatic reaction was stopped after 10 min with H2SO4 (100 µL, 0.5 M) and the absorbances were measured at 490 nm in a VERSAmax microplate reader (Molecular Devices, California, USA). All the assays were conducted in triplicate in at least three independent experiments. Data were analyzed using a non-linear regression model with the Grafit6 software (Erithacus, Horley, Surrey, UK). Table 1. IC50 ± SEM values for target compounds of formula I-A and I-B in the oxidoreductase activity assays and in the Li-TryR monomer displacement

[6] = system: HepG2 cells; assay: Cytotoxicity assay, HepG2 (crystal violet); type: cell-based; conditions: Homo sapiens, HepG2, 24 h
Experimental: (§2) Human THP-1 monocytic cells were seeded at 1.2 x 10^5 cells/ml in 24-multidish plates (Nunc, Roskilde, Denmark) and differentiated to macrophages for 24 h in 1 ml of RPMI 1640 medium containing 10 ng/ml of phorbol 12-myristate 13-acetate (PMA) (Sigma-Aldrich, St. Louis, MO). Human HepG2 cells were seeded at 8 x 10^5 cells/ml in 24-multidish plates (Nunc, Roskilde, Denmark). After 24 h of drug treatment, both cell lines were washed with PBS and stained with violet crystal solution (0.2% in 2% ethanol) in for 10 min. at room temperature. After dye removal, cells were washed twice with water. Once dried, the wells were treated with 1% SDS for 30 min and the absorbance at 570nm was monitored in a plate reader. Table 2. EC50± SEM values for the compounds of formula I-A and I-B on L. infantum promastigotes, extracellular and intracellular amastigotes and cytotoxic activity in macrophage-differentiated THP-1 monocytes and HepG2 cell lines

[7] = system: macrophage-differentiated THP-1 monocytes; assay: Cytotoxicity assay, macrophage-differentiated THP-1 (crystal violet); type: cell-based; conditions: Homo sapiens, THP-1, 24 h; read-out: EC50 (µM) THP-1 dif
Experimental: as §2

[8] = target: T1, Li-TryR dimeric form; conditions: background, ChemBioChem, 2013, 14(10), 1212-1217; cited from earlier work

T1 sequence (A4HSF7 entry or part of it): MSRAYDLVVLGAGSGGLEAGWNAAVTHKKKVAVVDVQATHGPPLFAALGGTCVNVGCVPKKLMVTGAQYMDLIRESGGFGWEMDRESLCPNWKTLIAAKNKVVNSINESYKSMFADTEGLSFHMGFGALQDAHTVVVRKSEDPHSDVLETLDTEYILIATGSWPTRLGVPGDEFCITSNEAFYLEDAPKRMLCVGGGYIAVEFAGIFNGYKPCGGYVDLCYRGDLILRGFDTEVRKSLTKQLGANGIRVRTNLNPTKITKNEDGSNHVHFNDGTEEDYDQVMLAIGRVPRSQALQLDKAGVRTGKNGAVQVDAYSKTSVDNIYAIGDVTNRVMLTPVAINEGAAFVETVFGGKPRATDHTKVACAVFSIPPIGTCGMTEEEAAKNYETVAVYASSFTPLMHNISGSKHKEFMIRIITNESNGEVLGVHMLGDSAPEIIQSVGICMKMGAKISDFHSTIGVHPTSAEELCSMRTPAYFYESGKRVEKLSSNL
Chain of recombinant Li-TryR (A4HSF7 entry or part of it): as above

Compound: CC(C)(C)Cc1csc(-c2ccc(-n3cc(CCCCN)nn3)cc2OCCN2CCNC2=O)n1 [Compound 8b, 1-(2-(5-(4-(4-Aminobutyl)-1H-1,2,3-triazol-1-yl)-2-(4-neopentylthiazol-2-yl)phenoxy)ethyl)imidazolidin-2-one 2,2,2 trifluoroacetate]
EC50 [1]: 18.2 ± 0.4 µM
IC50 [2]: 17.2 ± 1.69 µM
EC50 [3]: 30.2 ± 1.7 µM
EC50 [4]: 45 ± 3.51 µM
IC50 [5]: > 75 µM

EC50 [3]: 33.6 ± 1.5 µM
Compound: NCCCCc1cn(-c2ccc(-c3nc(CCc4ccccc4)cs3)c(OCCN3CCNC3=O)c2)nn1 [Compound 8e, 1-(2-(5-(4-(4-Aminobutyl)-1H-1,2,3-triazol-1-yl)-2-(4-phenethylthiazol-2-yl)phenoxy)ethyl)imidazolidin-2-one 2,2,2 trifluoroacetate]
EC50 [1]: 13.9 ± 0.6 µM
EC50 [6]: 20.4 ± 2.37 µM
EC50 [4]: 30.54 ± 0.16 µM
EC50 [7]: 27.2 ± 1.2 µM

Compound: NCCCCc1cn(-c2ccc(-c3nc(CCc4ccc5ccccc5c4)cs3)c(OCCN3CCNC3=O)c2)nn1 [Compound 8g, 1-(2-(5-(4-(4-Aminobutyl)-1H-1,2,3-triazol-1-yl)-2-(4-(2-(naphthalen-2-yl)ethyl)thiazol-2-yl)phenoxy)ethyl)imidazolidin-2-one 2,2,2 trifluoroacetate]
EC50 [1]: 23 ± 1.86 µM
IC50 [2]: 6.22 ± 1.01 µM
EC50 [6]: 33.3 ± 2.7 µM
EC50 [3]: 31.2 ± 1.9 µM
EC50 [4]: 8.79 ± 0.75 µM
EC50 [7]: 47.6 ± 3.3 µM
IC50 [5]: 11.2 ± 0.41 µM

Compound: C[n+]1nn(-c2ccc(-c3nc(CCc4ccc5c(c4)CCO5)cs3)c(OCCN3CCNC3=O)c2)cc1CCCCN [Compound 10d, 4-(4-Ammoniobutyl)-1-(4-(4-(2-(2,3-dihydrobenzofuran-5-yl)ethyl)thiazol-2-yl)-3-(2-(2-oxoimidazolidin-1-yl)ethoxy)phenyl)-3-methyl-1H-1,2,3-triazol-3-ium 2,2,2-trifluoroacetate trifluoromethanesulfonate]
EC50 [1]: ≥ 75 µM
IC50 [2]: 5.42 ± 0.23 µM
EC50 [6]: ≥ 75 µM
EC50 [4]: 47 ± 2.08 µM
EC50 [7]: ≥ 75 µM
IC50 [5]: > 75 µM

Compound: C[n+]1nn(-c2ccc(-c3nc(CCc4ccc(-c5ccccc5)cc4)cs3)c(OCCN3CCNC3=O)c2)cc1CCCCN [Compound 10e, 1-(4-(4-(2-([1,1'-Biphenyl]-4-yl)ethyl)thiazol-2-yl)-3-(2-(2-oxoimidazolidin-1-yl)ethoxy)phenyl)-4-(4-ammoniobutyl)-3-methyl-1H-1,2,3-triazol-3-ium 2,2,2-trifluoroacetate trifluoromethanesulfonate]
EC50 [1]: 11.6 ± 1.14 µM
IC50 [2]: 5.19 ± 0.82 µM
EC50 [6]: ≥ 75 µM
EC50 [3]: 19.5 ± 1 µM
EC50 [4]: 18.7 ± 1.26 µM
EC50 [7]: 21.6 ± 0.7 µM
IC50 [5]: 23.8 ± 0.96 µM

Compound: CC[n+]1nn(-c2ccc(-c3nc(CCc4ccc(-c5ccccc5)cc4)cs3)c(OCCN3CCNC3=O)c2)cc1CCCCN [Compound 10f, 1-(4-(4-(2-([1,1'-Biphenyl]-4-yl)ethyl)thiazol-2-yl)-3-(2-(2-oxoimidazolidin-1-yl)ethoxy)phenyl)-4-(4-ammoniobutyl)-3-ethyl-1H-1,2,3-triazol-3-ium 2,2,2-trifluoroacetate trifluoromethanesulfonate]
EC50 [1]: 15.5 ± 0.7 µM
IC50 [2]: 3.88 ± 0.55 µM
EC50 [6]: 69.9 ± 2.97 µM
EC50 [4]: 6.03 ± 0.49 µM
EC50 [7]: 19.9 ± 1.1 µM
IC50 [5]: 87.06 ± 0.1 µM

Compound: PEIIQSVGIS-Nle-K-Nle: 13-mer linear peptide derived from an α-helix spanning residues P435 to M447 of Li-TryR; prototype dimerization inhibitor (C-terminal Nle-K-Nle)
Li-TryR dimerization inhibition [8]: low micromolar range

Compound: PKIIQSVGIS-Nle-K-Nle: 13-mer linear peptide derived from an α-helix spanning residues P435 to M447 of Li-TryR; prototype dimerization inhibitor (C-terminal Nle-K-Nle)
Li-TryR dimerization inhibition [8]: low micromolar range
